Assay results from patent US4701448A, “Metal salt of organic phosphate and an antihyperlipemic agent containing the same” (Asahi Denka Kogyo Kabushiki Kaisha, priority 1985, dated 1987).
Where two headings read alike, the source gives them in different places.

Columns and labels:
[1] = Absorbability and effect (statement in words)
[2] = test system: mouse; assay: Acute toxicity, mouse; assay type: in vivo
Description: (§1) The acute toxicity of the metal salt of CB3A and of CK3A was examined by orally or peritoneally administrating an aqueous solution or dispersion thereof the results are shown in Table 2.
(§2) a . . . per os (oral administration)
(§3) b . . . intraperitoneal injection

[3] = Acidity (pKa) of CB3A; assay type: physicochemical
[4] = Water solubility, hygroscopic property and stability (statements in words); assay type: physicochemical; conditions: listed as CB3K
[5] = test system: synthesis of cholesterol; conditions: in words; Japanese Patent Application No. 165490/1983, J. Antibiotics 38, 328-332 (1985); cited from earlier work
[6] = Stability, 5 weeks at 45° C. and humidity of 80% (HPLC remaining rate); assay type: physicochemical; conditions: after 5 weeks, humidity of 80%, 50400 min
Procedure: One gram each of CB3A, CK3A and various metal salts thereof was placed in a beaker and the beaker was allowed to stand for 5 weeks in a constant temperature and humidity bath controlled at a temperature of 45° C. and a humidity of 80%. After 5 weeks, a remaining rate of the compound was analyzed quantitatively with a high performance liquid chromatography "Tri rotar" manufactured by Nippon Bunko K. K. (Japan).
A0 = initial amount of the compound prior to standing in the constan
temperature and humidity bath
A1 = final amount of the compound after 5 weeks

[7] = test system: rat; assay: Acute toxicity, rat; assay type: in vivo
Description: as §1, §2, §3

[8] = test system: serum cholesterol; assay: Serum cholesterol lowering activity, oral, rabbit, 5 successive days; assay type: in vivo; conditions: two times a day, 5 days
Procedure: (1) Serum cholesterol lowering activity the metal salt of organic phosphate according to the present invention was orally administered to a rabbit (body weight of about 3 Kg) two times a day (at 9:00 a.m. and 4:00 p.m.) for 5 successive days. After 5 days, blood was sampled and the total cholesterol value in serum was measured in a conventional manner.

CCC(C)C(=O)OC1CCC=C2C=CC(C)C(CCC(CC(O)CC(=O)O)OP(=O)(O)O)C21 (stereo not shown) [CB3A, reference compound]
absorbability and effect [1]: unsatisfactory
LD50 ([2]; intraperitoneal injection): > 500 mg/kg
LD50 ([2]; per os (oral administration)): > 2000 mg/kg
pKa ([3]; carboxylic acid group in CB3A molecule, read-out: pKa3): 7.1
pKa ([3]; phosphoric acid group in CB3A molecule, read-out: pKa1): 2.2
pKa ([3]; phosphoric acid group in CB3A molecule, read-out: pKa2): 5
stability [4]: unstable
activity of inhibiting the synthesis of cholesterol [5]: strong activity of inhibiting the synthesis of cholesterol
Remaining rate [6]: 14%
LD50 ([7]; intraperitoneal injection): > 500 mg/kg
LD50 ([7]; per os (oral administration)): > 2000 mg/kg
Total Serum cholesterol lowering rate ([8]; 1.5 mg/kg/day): 9.4%
Total Serum cholesterol lowering rate ([8]; 6 mg/kg/day): 23.9%
